Earlier results on eight compounds are cited in patent publication US6200602A, “Composition for enhanced uptake of polar drugs from the colon” (priority 1995, dated 2001).

For data set [1] the following is noted: oral / gastrointestinal tract.
The conditions of data set [2]: literature knowledge.
The conditions of data set [3]: absorption enhancer in the gastrointestinal tract.
The conditions of data set [4]: rat intestine; sodium caprate and sodium glycocholate as enhancers.

As to `C[C@H](CS)C(=O)N1CCC[C@H]1C(=O)O` [captopril], in data set [1], the “absorption when dosed orally” value is given as “poor or erratic absorption”.

As for `CN/C(=N/CCSCc1nc[nH]c1C)NC#N` [cimetidine], the “absorption when dosed orally” value in data set [1] was “poor or erratic absorption”.

As to `O=P(O)(O)C(Cl)(Cl)P(=O)(O)O` [clodronate], the “absorption when dosed orally” value in data set [1] is on record as “poor or erratic absorption”.

Turning to `CNC(=C[N+](=O)[O-])NCCSCc1ccc(CN(C)C)o1` [ranitidine], in data set [1], the “absorption when dosed orally” value was “poor or erratic absorption”.

Regarding `CCCCCCCCCC(=O)[O-].[Na+]` [sodium caprate], in data set [2], the absorption promoting effect entry is “can act as an absorption promoting agent”.

Take `O=C(O)c1cc(=O)c2c(OCC(O)COc3cccc4oc(C(=O)O)cc(=O)c34)cccc2o1` [sodium cromoglycate]: in data set [1], the “absorption when dosed orally” value was “poor or erratic absorption”.

Take `C[C@H](CCC(=O)O)[C@H]1CC[C@H]2[C@@H]3CC[C@@H]4C[C@H](O)CC[C@]4(C)[C@H]3C[C@H](O)[C@]12C` [sodium deoxycholate]: the “side effect and toxicity” value in data set [3] is “associated with potential side effect (diarrhoea) and toxicity”. Moreover, the absorption promoting effect entry in data set [2] is recorded as “known to act as an absorption enhancer in the gastrointestinal tract”.

As for insulin: polypeptide drug, in data set [4], the “preferred site for insulin absorption” value is on record as “the ileum was the most preferred site for insulin absorption”.
